According to the supplement of paper PMC13207355:
Counter-ions that a name gives are not always drawn.

What was measured:
Conditions in all cases: exposure time: 72 h
E31 [1] = patient-derived glioblastoma stem cells of proneural subtype; assay: phenotypic distance (Euclidean, principal components) from DMSO controls (arbitrary units); higher = stronger morphological change
FT3469 [2] = normal neural stem cell line; assay: as above
E57 [3] = patient-derived glioblastoma stem cells of mesenchymal subtype; assay: as above
E21 [4] = patient-derived glioblastoma stem cells of mesenchymal subtype; assay: as above
E13 [5] = patient-derived glioblastoma stem cells of classical subtype; assay: as above
E28 [6] = patient-derived glioblastoma stem cells of classical subtype; assay: as above
E34 [7] = patient-derived glioblastoma stem cells of proneural subtype; assay: as above
E31 [8] = assay: surviving fraction (nuclei count normalised to DMSO); higher = more cells surviving (less toxic)
FT3469 [9] = assay: as above
E57 [10] = assay: as above
E21 [11] = assay: as above
E13 [12] = assay: as above
E28 [13] = assay: as above
E34 [14] = assay: as above
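Throughout, for phenotypic distance (Euclidean, principal components) from DMSO controls: cell Painting imaging in 384-well plates, CellProfiler features reduced to at least 20 principal components, Euclidean distance versus same-plate DMSO vehicle wells (0.1% v/v), median over six images per well.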
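Throughout, for surviving fraction (nuclei count normalised to DMSO): nuclei counted by high-content imaging of Hoechst-stained cells in laminin-coated 384-well plates, relative to 0.1% DMSO vehicle wells, with staurosporine as cell-death control.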

CC(C)C[C@H](NC(=O)[C@H](Cc1ccccc1)NC(=O)c1cnccn1)B(O)O [Bortezomib]
Conditions	phenotypic distance	surviving fraction
E13 [5], 4.11523 nM	16.9	–
E13 [5], 12.34567901 nM	2.3	–
E13 [5], 37.037 nM	17.1	–
E13 [5], 111.1111111 nM	12	–
E13 [5], 333.333 nM	14.2	–
E13 [5], 1000 nM	13.5	–
E13 [5], 3000 nM	21.9	–
E13 [12], 4.11523 nM	–	0.00185
E13 [12], 12.34567901 nM	–	0.551
E13 [12], 37.037 nM	–	0.000925
E13 [12], 111.1111111 nM	–	0.0074
E13 [12], 333.333 nM	–	0.000925
E13 [12], 1000 nM	–	0.00185
E13 [12], 3000 nM	–	0
E21 [4], 4.11523 nM	10.7	–
E21 [4], 12.34567901 nM	17.6	–
E21 [4], 37.037 nM	18.1	–
E21 [4], 111.1111111 nM	23.9	–
E21 [4], 333.333 nM	14.3	–
E21 [4], 1000 nM	18.7	–
E21 [4], 3000 nM	23.7	–
E21 [11], 4.11523 nM	–	0.00595
E21 [11], 12.34567901 nM	–	0.00198
E21 [11], 37.037 nM	–	0.000991
E21 [11], 111.1111111 nM	–	0.000991
E21 [11], 333.333 nM	–	0.00297
E21 [11], 1000 nM	–	0.00198
E21 [11], 3000 nM	–	0
E28 [6], 4.11523 nM	5.69	–
E28 [6], 12.34567901 nM	4.88	–
E28 [6], 37.037 nM	6.77	–
E28 [6], 111.1111111 nM	5.66	–
E28 [6], 333.333 nM	5.33	–
E28 [6], 1000 nM	6.17	–
E28 [6], 3000 nM	5.47	–
E28 [13], 4.11523 nM	–	0.0619
E28 [13], 12.34567901 nM	–	0.0854
E28 [13], 37.037 nM	–	0.0576
E28 [13], 111.1111111 nM	–	0.0896
E28 [13], 333.333 nM	–	0.0747
E28 [13], 1000 nM	–	0.0576
E28 [13], 3000 nM	–	0.105
E31 [1], 4.11523 nM	8.53	–
E31 [1], 12.34567901 nM	10.1	–
E31 [1], 37.037 nM	10.2	–
E31 [1], 111.1111111 nM	21.4	–
E31 [1], 333.333 nM	11.7	–
E31 [1], 1000 nM	17.1	–
E31 [1], 3000 nM	12.6	–
E31 [8], 4.11523 nM	–	0.00325
E31 [8], 12.34567901 nM	–	0.0114
E31 [8], 37.037 nM	–	0.00651
E31 [8], 111.1111111 nM	–	0
E31 [8], 333.333 nM	–	0.00163
E31 [8], 1000 nM	–	0
E31 [8], 3000 nM	–	0.00163
E34 [7], 4.11523 nM	10.2	–
E34 [7], 12.34567901 nM	9.58	–
E34 [7], 37.037 nM	13.4	–
E34 [7], 111.1111111 nM	13.5	–
E34 [7], 333.333 nM	13.9	–
E34 [7], 1000 nM	12.6	–
E34 [7], 3000 nM	12.6	–
E34 [14], 4.11523 nM	–	0.0594
E34 [14], 12.34567901 nM	–	0.0507
E34 [14], 37.037 nM	–	0.0385
E34 [14], 111.1111111 nM	–	0.0332
E34 [14], 333.333 nM	–	0.035
E34 [14], 1000 nM	–	0.0227
E34 [14], 3000 nM	–	0.0385
E57 [3], 4.11523 nM	10.4	–
E57 [3], 12.34567901 nM	15.6	–
E57 [3], 37.037 nM	11.2	–
E57 [3], 111.1111111 nM	10.8	–
E57 [3], 333.333 nM	12.5	–
E57 [3], 1000 nM	12.2	–
E57 [3], 3000 nM	9.88	–
E57 [10], 4.11523 nM	–	0.00967
E57 [10], 12.34567901 nM	–	0.00153
E57 [10], 37.037 nM	–	0.00662
E57 [10], 111.1111111 nM	–	0.00611
E57 [10], 333.333 nM	–	0.00255
E57 [10], 1000 nM	–	0.00305
E57 [10], 3000 nM	–	0.00611
FT3469 [2], 4.11523 nM	5.9	–
FT3469 [2], 12.34567901 nM	7.61	–
FT3469 [2], 37.037 nM	8.16	–
FT3469 [2], 111.1111111 nM	8	–
FT3469 [2], 333.333 nM	7.22	–
FT3469 [2], 1000 nM	8.26	–
FT3469 [2], 3000 nM	6	–
FT3469 [9], 4.11523 nM	–	0.207
FT3469 [9], 12.34567901 nM	–	0.193
FT3469 [9], 37.037 nM	–	0.233
FT3469 [9], 111.1111111 nM	–	0.161
FT3469 [9], 333.333 nM	–	0.158
FT3469 [9], 1000 nM	–	0.121
FT3469 [9], 3000 nM	–	0.104

Cc1c(-c2ccc(-c3ccccc3F)cc2)nc2ccc(F)cc2c1C(=O)O [Brequinar sodium salt hydrate]
Conditions	phenotypic distance	surviving fraction
E13 [5], 4.1 nM	0.5	–
E13 [5], 12.3 nM	0.844	–
E13 [5], 37 nM	0.761	–
E13 [5], 111.1 nM	1.8	–
E13 [5], 333.3 nM	4.41	–
E13 [5], 1000 nM	4.43	–
E13 [5], 3000 nM	5.02	–
E13 [12], 4.1 nM	–	1.01
E13 [12], 12.3 nM	–	1.08
E13 [12], 37 nM	–	1.03
E13 [12], 111.1 nM	–	0.858
E13 [12], 333.3 nM	–	0.726
E13 [12], 1000 nM	–	0.615
E13 [12], 3000 nM	–	0.471
E21 [4], 4.1 nM	0.972	–
E21 [4], 12.3 nM	0.391	–
E21 [4], 37 nM	1.22	–
E21 [4], 111.1 nM	0.607	–
E21 [4], 333.3 nM	1.48	–
E21 [4], 1000 nM	2.5	–
E21 [4], 3000 nM	3.68	–
E21 [11], 4.1 nM	–	0.951
E21 [11], 12.3 nM	–	1.04
E21 [11], 37 nM	–	0.918
E21 [11], 111.1 nM	–	0.817
E21 [11], 333.3 nM	–	0.699
E21 [11], 1000 nM	–	0.649
E21 [11], 3000 nM	–	0.444
E28 [6], 4.1 nM	1.07	–
E28 [6], 12.3 nM	0.503	–
E28 [6], 37 nM	0.823	–
E28 [6], 111.1 nM	1.12	–
E28 [6], 333.3 nM	1.2	–
E28 [6], 1000 nM	2.26	–
E28 [6], 3000 nM	2.28	–
E28 [13], 4.1 nM	–	1.13
E28 [13], 12.3 nM	–	1.03
E28 [13], 37 nM	–	0.963
E28 [13], 111.1 nM	–	0.807
E28 [13], 333.3 nM	–	0.606
E28 [13], 1000 nM	–	0.42
E28 [13], 3000 nM	–	0.344
E31 [1], 4.1 nM	0.556	–
E31 [1], 12.3 nM	0.921	–
E31 [1], 37 nM	0.734	–
E31 [1], 111.1 nM	0.725	–
E31 [1], 333.3 nM	2.59	–
E31 [1], 1000 nM	3.28	–
E31 [1], 3000 nM	3.43	–
E31 [8], 4.1 nM	–	1.1
E31 [8], 12.3 nM	–	1
E31 [8], 37 nM	–	0.96
E31 [8], 111.1 nM	–	1.13
E31 [8], 333.3 nM	–	0.724
E31 [8], 1000 nM	–	0.392
E31 [8], 3000 nM	–	0.407
E34 [7], 4.1 nM	0.701	–
E34 [7], 12.3 nM	0.581	–
E34 [7], 37 nM	0.513	–
E34 [7], 111.1 nM	0.804	–
E34 [7], 333.3 nM	1	–
E34 [7], 1000 nM	1.62	–
E34 [7], 3000 nM	2.87	–
E34 [14], 4.1 nM	–	0.811
E34 [14], 12.3 nM	–	0.864
E34 [14], 37 nM	–	0.96
E34 [14], 111.1 nM	–	1.01
E34 [14], 333.3 nM	–	0.909
E34 [14], 1000 nM	–	0.888
E34 [14], 3000 nM	–	0.794
E57 [3], 4.1 nM	1.62	–
E57 [3], 12.3 nM	0.514	–
E57 [3], 37 nM	1.88	–
E57 [3], 111.1 nM	3.44	–
E57 [3], 333.3 nM	5.23	–
E57 [3], 1000 nM	6.97	–
E57 [3], 3000 nM	6.84	–
E57 [10], 4.1 nM	–	0.969
E57 [10], 12.3 nM	–	0.999
E57 [10], 37 nM	–	0.871
E57 [10], 111.1 nM	–	0.67
E57 [10], 333.3 nM	–	0.458
E57 [10], 1000 nM	–	0.372
E57 [10], 3000 nM	–	0.325
FT3469 [2], 4.1 nM	0.696	–
FT3469 [2], 12.3 nM	0.439	–
FT3469 [2], 37 nM	0.863	–
FT3469 [2], 111.1 nM	0.612	–
FT3469 [2], 333.3 nM	1.17	–
FT3469 [2], 1000 nM	1.76	–
FT3469 [2], 3000 nM	1.88	–
FT3469 [9], 4.1 nM	–	0.883
FT3469 [9], 12.3 nM	–	0.941
FT3469 [9], 37 nM	–	0.996
FT3469 [9], 111.1 nM	–	1
FT3469 [9], 333.3 nM	–	0.858
FT3469 [9], 1000 nM	–	0.742
FT3469 [9], 3000 nM	–	0.65
